Data taken from PubChem BioAssay AID2060912 (Molecular Pharmacology Branch, DTP, NCI, 2025).

Tested on: HUVEC/MSC spheroids viability
Assay: Human HUVEC/MSC cell line growth inhibition [KRAS2];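 as to viability, T/C: percent of DMSO vehicle control luminescence so 100% = untreated viability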
Conditions: for IC50: curve of first compound; for viability, T/C: stronger effect = lower value
Excerpt: Multicellular complex tumor spheroid response to RAS pathway inhibitors in combination with a targeted agents in patient-derived cell lines with oncogenic KRAS variants from multiple cancer types
A high-throughput screen of multi-cell type tumor spheroids was designed to identify active combinations of targeted small molecules and KRAS pathway inhibitors. Complex spheroids include a stromal component modeled by human endothelial cells (HUVEC) and fibroblasts modeled by human mesenchymal stem cells (MSCs). The concentration ranges selected for each drug and investigational agent were based upon clinically achievable concentrations if the clinical Cmax of the agent was known. * [This particular assayID is a followup dataset requested by reviewers of the manuscript. It is a test of the HUVEC and MSC without the tumor cells, and was conducted using different drug plates and a different plate layout.]
Compounds. The drugs and investigational agents: BI-3406 (NSC825286), BAY-293 (NSC824723), batoprotafib (TNO155; NSC825523), sotorasib (AMG 510; NSC818433), MRTX1257 (NSC819558), elimusertib (BAY 1895344; NSC800525), molibresib (GSK525762; NSC774829), temuterkib (LY3214996; NSC803410), venetoclax (NSC766270), alisertib (NSC759677), olaparib (NSC753686), talazoparib (NSC767125), erdafitinib (NSC781556), ipatasertib (NSC767898), cabozantinib (NSC761068), nintedanib (NSC756659), abemaciclib (NSC768073), docetaxel (NSC628503), trametinib (NSC758246), and sapanisertib (NSC764658) were obtained from the National Cancer Institute (NCI) Developmental Therapeutics Program Chemical Repository. The FDA-approved anticancer drug set is available from the Developmental Therapeutics Program. […] The stock solutions were prepared in dimethyl sulfoxide (DMSO, Sigma-Aldrich, St. Louis, MO, cat. D2650) at 800-fold the tested concentration and stored at -70 degrees C prior to their use. All drugs and investigational agents were tested over a range starting from a high concentration at or near the clinical Cmax and decreasing in half-log increments. If the clinical Cmax for an agent had not been determined, the highest concentration tested was 10 microM.
Cell Culture. All cells were maintained in an incubator at 37 degrees C and 5% CO2 with 95% humidity. The PDC lines were cultured according to standard operating procedures established by the NCI PDMR (https://pdmr.cancer.gov/sops/default.htm). Briefly, all PDCs were thawed and cultured in Matrigel-coated flasks prepared with a working solution of 1X Ham's F-12 nutrient mix, without supplementation (Invitrogen, Waltham, MA, cat. 11765054), 100 U/mL penicillin-streptomycin (Invitrogen, cat. 15140122), and 2.5% Matrigel (Corning Inc., Corning, NY, cat. 354248) for the first three passages. All PDCs were cultured in complete DMEM/F-12 media containing advanced DMEM/F-12 (Invitrogen, cat. 12634028), 4.9% defined fetal bovine serum, heat inactivated (HyClone Laboratories Inc., Logan, UT, cat. SH30070.03HI), 389 ng/mL hydrocortisone (Sigma-Aldrich, cat. H4001), 9.7 ng/mL human EGF recombinant protein (Invitrogen, cat. PHG0313), 23.4 microg/mL adenine (Sigma-Aldrich, cat. A2786), 97.3 U/mL penicillin-streptomycin (Invitrogen, cat. 15140122), 1.9 mM L-glutamine (Invitrogen, cat. 25030081), and 9.7 microM Y-27632 dihydrochloride (Tocris Bioscience, Bristol, United Kingdom, cat. 1254). The PDCs were cultured in complete DMEM/F12 media without 9.7 microM Y-27632 dihydrochloride for at least two passages prior to the screen. The established cell line HOP-62 was cultured in RPMI 1640 medium, HEPES (Invitrogen, cat. 22400105) with 10% defined fetal bovine serum (HyClone Laboratories Inc., cat. SH30070.03) and 2 mM L-glutamine (Invitrogen, cat. 25030081). The pooled donor HUVEC were cultured in endothelial cell growth medium 2 (PromoCell, Heidelberg, Germany, cat. C-22011) and the hMSC were cultured in mesenchymal stem cell growth medium 2 (PromoCell, cat. C-28009). […]

CC(=O)Nc1cccc(-n2c(=O)n(C3CC3)c(=O)c3c(Nc4ccc(I)cc4F)n(C)c(=O)c(C)c32)c1 + C=CC(=O)N1CCN(c2nc(=O)n(-c3c(C)ccnc3C(C)C)c3nc(-c4c(O)cccc4F)c(F)cc23)C(C)C1
IC50 (second compound 0.0316 µM): 16.1 nM
IC50 (second compound 0.1 µM): 17.8 nM
IC50 (second compound 0.316 µM): 16.8 nM
IC50 (second compound 1 µM): 17.9 nM
IC50 (second compound 3.16 µM): 16.3 nM
IC50 (second compound 10 µM): 13.7 nM
viability, T/C (second compound 0.0316 µM, first compound 94.9 pM): 126%
viability, T/C (second compound 0.0316 µM, first compound 0.0003 µM): 140%
viability, T/C (second compound 0.0316 µM, first compound 0.000949 µM): 163%
viability, T/C (second compound 0.0316 µM, first compound 0.003 µM): 114%
viability, T/C (second compound 0.0316 µM, first compound 0.00949 µM): 77.1%
viability, T/C (second compound 0.0316 µM, first compound 0.03 µM): 20.7%
viability, T/C (second compound 0.1 µM, first compound 94.9 pM): 92.7%
viability, T/C (second compound 0.1 µM, first compound 0.0003 µM): 130%
viability, T/C (second compound 0.1 µM, first compound 0.000949 µM): 141%
viability, T/C (second compound 0.1 µM, first compound 0.003 µM): 113%
viability, T/C (second compound 0.1 µM, first compound 0.00949 µM): 88.3%
viability, T/C (second compound 0.1 µM, first compound 0.03 µM): 18.6%
viability, T/C (second compound 0.316 µM, first compound 94.9 pM): 126%
viability, T/C (second compound 0.316 µM, first compound 0.0003 µM): 157%
viability, T/C (second compound 0.316 µM, first compound 0.000949 µM): 151%
viability, T/C (second compound 0.316 µM, first compound 0.003 µM): 119%
viability, T/C (second compound 0.316 µM, first compound 0.00949 µM): 80.3%
viability, T/C (second compound 0.316 µM, first compound 0.03 µM): 20.6%
viability, T/C (second compound 1 µM, first compound 94.9 pM): 148%
viability, T/C (second compound 1 µM, first compound 0.0003 µM): 133%
viability, T/C (second compound 1 µM, first compound 0.000949 µM): 148%
viability, T/C (second compound 1 µM, first compound 0.003 µM): 112%
viability, T/C (second compound 1 µM, first compound 0.00949 µM): 89.8%
viability, T/C (second compound 1 µM, first compound 0.03 µM): 19.7%
viability, T/C (second compound 3.16 µM, first compound 94.9 pM): 144%
viability, T/C (second compound 3.16 µM, first compound 0.0003 µM): 157%
viability, T/C (second compound 3.16 µM, first compound 0.000949 µM): 170%
viability, T/C (second compound 3.16 µM, first compound 0.003 µM): 120%
viability, T/C (second compound 3.16 µM, first compound 0.00949 µM): 82%
viability, T/C (second compound 3.16 µM, first compound 0.03 µM): 16.8%
viability, T/C (second compound 10 µM, first compound 94.9 pM): 134%
viability, T/C (second compound 10 µM, first compound 0.0003 µM): 157%
viability, T/C (second compound 10 µM, first compound 0.000949 µM): 164%
viability, T/C (second compound 10 µM, first compound 0.003 µM): 130%
viability, T/C (second compound 10 µM, first compound 0.00949 µM): 70.4%
viability, T/C (second compound 10 µM, first compound 0.03 µM): 8.78%

COc1cc(Nc2ncc3c(n2)-c2ccc(Cl)cc2C(c2c(F)cccc2OC)=NC3)ccc1C(=O)O + C=CC(=O)N1CCN(c2nc(=O)n(-c3c(C)ccnc3C(C)C)c3nc(-c4c(O)cccc4F)c(F)cc23)C(C)C1
IC50 (second compound 0.0316 µM): > 10000 nM
IC50 (second compound 0.1 µM): > 10000 nM
IC50 (second compound 0.316 µM): > 10000 nM
IC50 (second compound 1 µM): > 10000 nM
IC50 (second compound 3.16 µM): > 10000 nM
IC50 (second compound 10 µM): > 10000 nM
viability, T/C (second compound 0.0316 µM, first compound 0.0316 µM): 94.8%
viability, T/C (second compound 0.0316 µM, first compound 0.1 µM): 125%
viability, T/C (second compound 0.0316 µM, first compound 0.316 µM): 99%
viability, T/C (second compound 0.0316 µM, first compound 1 µM): 109%
viability, T/C (second compound 0.0316 µM, first compound 3.16 µM): 106%
viability, T/C (second compound 0.0316 µM, first compound 10 µM): 71.6%
viability, T/C (second compound 0.1 µM, first compound 0.0316 µM): 103%
viability, T/C (second compound 0.1 µM, first compound 0.1 µM): 109%
viability, T/C (second compound 0.1 µM, first compound 0.316 µM): 108%
viability, T/C (second compound 0.1 µM, first compound 1 µM): 111%
viability, T/C (second compound 0.1 µM, first compound 3.16 µM): 106%
viability, T/C (second compound 0.1 µM, first compound 10 µM): 56.3%
viability, T/C (second compound 0.316 µM, first compound 0.0316 µM): 111%
viability, T/C (second compound 0.316 µM, first compound 0.1 µM): 114%
viability, T/C (second compound 0.316 µM, first compound 0.316 µM): 93.8%
viability, T/C (second compound 0.316 µM, first compound 1 µM): 116%
viability, T/C (second compound 0.316 µM, first compound 3.16 µM): 106%
viability, T/C (second compound 0.316 µM, first compound 10 µM): 69.3%
viability, T/C (second compound 1 µM, first compound 0.0316 µM): 122%
viability, T/C (second compound 1 µM, first compound 0.1 µM): 127%
viability, T/C (second compound 1 µM, first compound 0.316 µM): 115%
viability, T/C (second compound 1 µM, first compound 1 µM): 127%
viability, T/C (second compound 1 µM, first compound 3.16 µM): 117%
viability, T/C (second compound 1 µM, first compound 10 µM): 72.9%
viability, T/C (second compound 3.16 µM, first compound 0.0316 µM): 110%
viability, T/C (second compound 3.16 µM, first compound 0.1 µM): 123%
viability, T/C (second compound 3.16 µM, first compound 0.316 µM): 110%
viability, T/C (second compound 3.16 µM, first compound 1 µM): 96.3%
viability, T/C (second compound 3.16 µM, first compound 3.16 µM): 109%
viability, T/C (second compound 3.16 µM, first compound 10 µM): 83.3%
viability, T/C (second compound 10 µM, first compound 0.0316 µM): 136%
viability, T/C (second compound 10 µM, first compound 0.1 µM): 129%
viability, T/C (second compound 10 µM, first compound 0.316 µM): 154%
viability, T/C (second compound 10 µM, first compound 1 µM): 120%
viability, T/C (second compound 10 µM, first compound 3.16 µM): 101%
viability, T/C (second compound 10 µM, first compound 10 µM): 66.8%
